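Values below derive from 48-hour exposures of cells grown in 96-well plates, with endpoints linearly interpolated between the two concentrations bracketing the appropriate inhibition level. GI50 is the concentration that inhibits growth by half. At the TGI there is no net growth.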
Experiments:
Experiment in all cases: DTP human tumour cell line panel, 48 h
LOX IMVI melanoma = system: LOX IMVI melanoma
SK-MEL-28 melanoma = system: SK-MEL-28 melanoma
ACHN renal = system: ACHN renal
OVCAR-5 ovarian = system: OVCAR-5 ovarian
PC-3 prostate = system: PC-3 prostate
RXF 393 renal = system: RXF 393 renal
MDA-MB-435 = system: MDA-MB-435
SF-295 CNS = system: SF-295 CNS
KM12 colon = system: KM12 colon
CAKI-1 renal = system: CAKI-1 renal
MCF7 breast = system: MCF7 breast
RPMI-8226 leukemia = system: RPMI-8226 leukemia
COLO 205 colon = system: COLO 205 colon
HCT-15 colon = system: HCT-15 colon

Q: With `Cc1cc(C)c(S(=O)(=O)N(CCCCN)OCCCN)c(C)c1` as the compound, how does the TGI (LOX IMVI melanoma) read?
A: 31.9 µM

Q: And the TGI (SK-MEL-28 melanoma)?
A: 32.4 µM

Q: What about the TGI (ACHN renal) of the same compound?
A: 37 µM

Q: And the TGI (OVCAR-5 ovarian)?
A: 35.6 µM

Q: And the TGI (PC-3 prostate)?
A: 27.6 µM

Q: What about the TGI (RXF 393 renal) of the same compound?
A: 31.6 µM

Q: What about the TGI (MDA-MB-435) of the same compound?
A: 30.7 µM

Q: What about the TGI (SF-295 CNS) of the same compound?
A: 37 µM

Q: And the TGI (KM12 colon)?
A: 35 µM

Q: What about the TGI (CAKI-1 renal) of the same compound?
A: 31.3 µM

Q: What about the TGI (MCF7 breast) of the same compound?
A: 35.3 µM

Q: What about the TGI (RPMI-8226 leukemia) of the same compound?
A: 26 µM

Q: What about the TGI (COLO 205 colon) of the same compound?
A: 22.7 µM

Q: For `OC(c1ccc(Cl)cc1)(c1ccc(Cl)cc1)C(O)(c1ccc(Cl)cc1)c1ccc(Cl)cc1`, which GI50 (PC-3 prostate) is on record?
A: 3.25 µM

Q: And the TGI (PC-3 prostate)?
A: > 100 µM

Q: And the GI50 (MDA-MB-435)?
A: 2.94 µM

Q: And the TGI (MDA-MB-435)?
A: > 100 µM

Q: And the GI50 (KM12 colon)?
A: 4.12 µM

Q: And the TGI (KM12 colon)?
A: > 100 µM

Q: And the GI50 (MCF7 breast)?
A: 3.27 µM

Q: And the TGI (MCF7 breast)?
A: > 100 µM

Q: And the GI50 (RPMI-8226 leukemia)?
A: 3.27 µM

Q: What about the TGI (RPMI-8226 leukemia) of the same compound?
A: > 100 µM

Q: What about the GI50 (HCT-15 colon) of the same compound?
A: 2.93 µM

Q: What about the TGI (HCT-15 colon) of the same compound?
A: > 100 µM

Q: Which TGI (LOX IMVI melanoma) does the source give for `COc1cc(C2C3=C(CCC3=O)Oc3cc4c(cc32)OCO4)cc(OC)c1OC` (centres undefined) here?
A: > 100 µM

Q: And the TGI (SK-MEL-28 melanoma)?
A: > 100 µM

Q: And the TGI (ACHN renal)?
A: 62.3 µM

Q: And the TGI (OVCAR-5 ovarian)?
A: > 100 µM

Q: And the TGI (RXF 393 renal)?
A: > 100 µM

Q: And the TGI (SF-295 CNS)?
A: 0.532 µM

Q: What about the TGI (CAKI-1 renal) of the same compound?
A: 30.3 µM

Q: And the TGI (COLO 205 colon)?
A: 1.81 µM

Q: What about the TGI (HCT-15 colon) of the same compound?
A: > 100 µM

Source: PubChem BioAssay (NCI)
